Data on eleven compounds can be found in BindingDB's records for patent US20240083857 (Bayer Pharma Aktiengesellschaft, 2024).

This experiment addresses Epidermal growth factor receptor (Homo sapiens, UniProt P00533). Kind of experiment: EGFR Kinase Assay. The procedure:
For the assay 50 nL of a 100 fold concentrated solution of the test compound in DMSO was pipetted into a black low volume 384 well microtiter plate (Greiner Bio-One, Frickenhausen, Germany), 2 μL of a solution of EGFR in aqueous assay buffer [50 mM Hepes/HCl pH 7.0, 1 mM MgCl2, 5 mM MnCl2, 0.5 mM activated sodium ortho-vanadate, 0.005% (v/v) Tween-20]were added and the mixture was incubated for 15 min at 22° C. to allow pre-binding of the test compounds to the enzyme before the start of the kinase reaction. […] The concentration of EGFR was adjusted depending of the activity of the enzyme lot and was chosen appropriate to have the assay in the linear range, typical concentration were about 3 U/ml. The reaction was stopped by the addition of 5 μl of a solution of HTRF detection reagents (0.1 μM streptavidine-XL665 [Cis Biointernational] and 1 nM PT66-Tb-Cryptate, an terbium-cryptate labelled anti-phospho-tyrosine antibody from Cis Biointernational [instead of the PT66-Tb-cryptate PT66-Eu-Chelate from Perkin Elmer can also be used]) in an aqueous EDTA-solution (80 mM EDTA, 0.2% (w/v) bovine serum albumin in 50 mM HEPES pH 7.5).The resulting mixture was incubated 1 h at 22° C. to allow the binding of the biotinylated phosphorylated peptide to the streptavidine-XL665 and the PT66-Eu-Chelate. Subsequently the amount of phosphorylated substrate was evaluated by measurement of the resonance energy transfer from the PT66-Tb-Cryptate to the streptavidine-XL665.

Bounds are passed on as bounds.

Sequence of Epidermal growth factor receptor (P00533 whole entry): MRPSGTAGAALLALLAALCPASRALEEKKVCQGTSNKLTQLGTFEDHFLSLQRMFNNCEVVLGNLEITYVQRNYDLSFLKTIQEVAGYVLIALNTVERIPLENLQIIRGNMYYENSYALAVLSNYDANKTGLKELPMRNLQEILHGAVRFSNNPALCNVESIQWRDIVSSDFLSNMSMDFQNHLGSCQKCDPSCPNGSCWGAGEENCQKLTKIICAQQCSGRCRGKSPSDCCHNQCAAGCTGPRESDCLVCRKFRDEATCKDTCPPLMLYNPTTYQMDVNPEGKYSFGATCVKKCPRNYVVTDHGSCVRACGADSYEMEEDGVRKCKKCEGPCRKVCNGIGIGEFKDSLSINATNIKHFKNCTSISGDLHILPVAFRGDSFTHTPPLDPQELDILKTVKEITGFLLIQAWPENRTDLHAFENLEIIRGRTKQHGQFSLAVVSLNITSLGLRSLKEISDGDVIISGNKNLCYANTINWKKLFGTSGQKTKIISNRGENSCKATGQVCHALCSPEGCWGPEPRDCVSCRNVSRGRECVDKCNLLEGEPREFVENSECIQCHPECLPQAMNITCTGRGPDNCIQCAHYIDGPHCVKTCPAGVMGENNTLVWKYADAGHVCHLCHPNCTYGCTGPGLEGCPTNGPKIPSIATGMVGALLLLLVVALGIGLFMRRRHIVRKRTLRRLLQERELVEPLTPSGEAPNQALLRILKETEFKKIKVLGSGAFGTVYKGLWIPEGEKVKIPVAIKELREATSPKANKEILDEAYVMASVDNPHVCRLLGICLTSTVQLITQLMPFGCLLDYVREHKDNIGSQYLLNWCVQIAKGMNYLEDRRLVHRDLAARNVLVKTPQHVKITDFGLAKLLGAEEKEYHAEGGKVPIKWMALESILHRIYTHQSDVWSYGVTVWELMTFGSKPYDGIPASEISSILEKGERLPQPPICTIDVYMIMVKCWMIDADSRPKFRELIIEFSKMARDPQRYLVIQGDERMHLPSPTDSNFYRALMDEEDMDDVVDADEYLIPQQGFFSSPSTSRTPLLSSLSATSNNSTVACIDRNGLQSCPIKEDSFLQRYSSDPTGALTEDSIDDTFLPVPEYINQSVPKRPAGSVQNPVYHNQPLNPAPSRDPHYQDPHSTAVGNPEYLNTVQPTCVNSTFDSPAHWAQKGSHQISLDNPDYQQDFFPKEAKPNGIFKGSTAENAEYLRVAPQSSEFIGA

As to `Cc1nc(N[C@H](C)c2ccccc2)c2cc(Br)ccc2n1` [US20240083857, Example 29], the IC50 (in general, the midpoint of a concentration-inhibition curve) was greater than 20 µM. Take `Cc1nc(N[C@H](C)c2ccc(F)cc2)c2cc(Br)ccc2n1` [US20240083857, Example 31]: the IC50 is greater than 20 µM. Under `COc1cc2nc(C)nc(N[C@H](C)c3cc4cccc(OC)c4o3)c2cc1OC` [US20240083857, Example 33] stands greater than 20 µM; under `COc1cc2nc(C)nc(N[C@H](C)c3ccc(C#N)cc3)c2cc1OC` [US20240083857, Example 189], greater than 20 µM; under `COc1cc2nc(C)nc(NC(C)c3ccc(-c4ccccc4CNCC(N)=O)s3)c2cc1OC` (stereo unspecified) [US20240083857, Example 279], greater than 20 µM. Under `COc1cc2nc(C)nc(NC(C)c3ccc(-c4ccccc4CNCC(=O)N(C)C)s3)c2cc1OC` (stereo unspecified) [US20240083857, Example 280] stands greater than 20 µM; under `CNC(=O)CNCc1ccccc1-c1ccc(C(C)Nc2nc(C)nc3cc(OC)c(OC)cc23)s1` (stereo unspecified) [US20240083857, Example 282], greater than 20 µM. The compound `COCCNC(=O)CNCc1ccccc1-c1ccc(C(C)Nc2nc(C)nc3cc(OC)c(OC)cc23)s1` (stereo unspecified) [US20240083857, Example 283] returned an IC50 greater than 20 µM. `COc1cc2nc(C)nc(NC(C)c3ccc(-c4ccccc4CNCC(=O)NCc4ccccc4)s3)c2cc1OC` (stereo unspecified) [US20240083857, Example 284] gave an IC50 greater than 20 µM. In the case of `COc1cc2nc(C)nc(NC(C)c3ccc(-c4ccccc4CNCC(=O)Nc4ccccc4)s3)c2cc1OC` (stereo unspecified) [US20240083857, Example 289], the IC50 is greater than 20 µM. Under `Cc1nc(NC(C)c2ccc(-c3ccccc3CN(C)C)s2)c2cc(N3CCCC3)ccc2n1` (stereo unspecified) [US20240083857, Example 415] stands greater than 20 µM.
